The results in this text go back to patent US10888549B2, “Pharmaceutical agents targeting cancer stem cells” (THE JOHNS HOPKINS UNIVERSITY, priority 2016, dated 2021).

Format in all cases: cell-based, human
One test deals with YAP1. In words: YAP1 expression by western blotting. As to the method:
Whole cell lysates were extracted using RIPA buffer (Thermo Scientific) supplemented with 10 μL/mL Halt™ Protease Inhibitor Cocktail Kit (Life Technologies) and 30 μL/mL Halt™ Phosphatase Inhibitor Cocktail Kit (Life Technologies). The protein concentrations were determined using a Pierce™ BCA Protein Assay Kit (Life Technologies), and the protein were separated on NuPAGE® 4-12% Bis-Tris Gel (Life Technologies) according to the manufacturer's protocol. COX2 (D5H5), NANOG (D73G4), OCT4 (D7O5Z), CD133 (A3G6K), Snail (C15D3), ZEB1 (D80D3), Vimentin (D21H3), CDH2 (D4R1H), CDH1 (24E10), p-EGFR (D7A5), EGFR (D38B1), p-AKT (D9E), AKT (cat #, 9272), p-ERK (D13.14.4E), ERK (137F5), p-YAP1 (D9W2I), p-Src (cat #, 2101), Src (36D10), DNMT1 (D63A6), DNMT3A (D23G1), and DNMT3B (D7O7O) antibodies were obtained from Cell Signaling Technology (Danvers, Mass., USA), except for SOX2 (EPR3131; Abcam, Cambridge, USA), YAP1 (ab52771; Abcam), CD24 (cat #, AF5247-SP; R&D Systems, Minneapolis USA) and β-actin (A2228; Sigma-Aldrich). Secondary horseradish peroxidase (HRP)-conjugated antibodies were obtained from Cell Signaling Technology, and chemiluminescent detection of HRP-labeled antibodies was performed using Amersham ECL Prime Western Blotting Detection Reagent (GE Healthcare, Piscataway, USA). As loading control, β-actin was used.
On the technique in general: A western blot detects proteins with antibodies after separation by electrophoresis.

The next test relates to urothelial CSCs. Description: Sphere formation assay (CSC properties). As to the method: Sphere formation was induced by culturing cells (2×10^4/well) in DMEM/Ham's F12 50/50 Mix (Mediatech) supplemented with B-27 (Life Technologies), 20 ng/mL FGF-basic (Peprotech), 20 ng/mL EGF (Peprotech). Cell culture was performed in ultra-low attachment 6 well plates (Corning, Lowell, USA) for 10 days. The medium was replaced every other day. Sphere formation was evaluated using the inverted phase-contrast microscope, and single sphere with a diameter larger than 100 μm was counted using NIS-Elements Microscope Imaging Software. To redifferentiate spheres, spheres were plated in standard growth medium with 10% FBS in dishes supporting cell attachment, and incubated for 7 days. For self-renewal assay, primary spheres were collected by gentle centrifugation (5 min at 400×g), dissociated with Stempro Accutase Cell Dissociation Reagent (Life Technologies), and mechanically disrupted with a pipette. The cell suspension was sieved through 40 μm cell strainer cap filter to achieve a single-cell suspension, and then equal numbers of alive cells were plated in ultralow attachment plates to generate the second spheres. Again, spheres were counted on day 14 and digested to generate the third Spheres. All the experiments were performed in triplicate and repeated at least three times.

The next test relates to let-7. Description: let-7 expression by Q-RT-PCR. Conditions: parental or spheroid bladder cancer cells. The procedure: Total RNA from cell lines was isolated using the RNeasy Plus Mini kit (Qiagen, Valencia, USA) according to the manufacturer's protocol. Total RNA extraction from bladder tissue was performed with the QIAzol Lysis Reagent (Qiagen) followed by phenol extraction and ethanol precipitation. Total RNA was eluted in DEPC treated water and stored at -80° C. Total RNA extraction from urine was performed using the […] Isolation Kit (Ambion, Austin, USA). These total RNA were converted to cDNA using the SuperScript III First-Strand Synthesis System (Life technologies, Carlsbad, USA), which was then used as a template for Q-RT-PCR. Q-RT-PCR was performed using the Fast SYBR Green Master Mix (Thermo Fisher Scientific, Waltham, USA) on a 7900HT Fast Real-Time PCR System (Life technologies) in triplicate. Micro RNA (miRNA) extraction was performed using the […] Isolation Kit, and was reverse transcribed using TaqMan reverse transcription kit (Applied Biosystems, Foster City, USA) and miRNA-specific RT primers provided with TaqMan microRNA assays (Applied Biosystems). Q-RT-PCR for miRNAs was performed using the TaqMan Universal PCR Master Mix according to the manufacturer's protocol. SDS software (Applied Biosystems) was used to determine cycle threshold (Ct) values. Expression level was quantified relative to β-actin for mRNA and RNU6B for miRNA using the 2-ΔΔCt method (12).

A further test deals with panel of miRNAs. Description: Expression of a panel of miRNAs in BFTC 905 cells. The procedure:
Total RNA from cell lines was isolated using the RNeasy Plus Mini kit (Qiagen, Valencia, USA) according to the manufacturer's protocol. Total RNA extraction from bladder tissue was performed with the QIAzol Lysis Reagent (Qiagen) followed by phenol extraction and ethanol precipitation. Total RNA was eluted in DEPC treated water and stored at −80° C. Total RNA extraction from urine was performed using the MirVana miRNA Isolation Kit (Ambion, Austin, USA). These total RNA were converted to cDNA using the SuperScript III First-Strand Synthesis System (Life technologies, Carlsbad, USA), which was then used as a template for Q-RT-PCR. Q-RT-PCR was performed using the Fast SYBR Green Master Mix (Thermo Fisher Scientific, Waltham, USA) on a 7900HT Fast Real-Time PCR System (Life technologies) in triplicate. Micro RNA (miRNA) extraction was performed using the MirVana miRNA Isolation Kit, and was reverse transcribed using TaqMan reverse transcription kit (Applied Biosystems, Foster City, USA) and miRNA-specific RT primers provided with TaqMan microRNA assays (Applied Biosystems). Q-RT-PCR for miRNAs was performed using the TaqMan Universal PCR Master Mix according to the manufacturer's protocol. SDS software (Applied Biosystems) was used to determine cycle threshold (Ct) values. Expression level was quantified relative to β-actin for mRNA and RNU6B for miRNA using the 2-ΔΔCt method (12).

The test system of test [1] is promoters of miR-126, miR-296, and miR-200c. Description: Bisulfite sequencing of miRNA promoters. The following applies: spheroid cells.
Experimental: Cell pellets were digested with 1% sodium dodecyl sulfate and 50 μg/mL proteinase K (Roche, Nutley, USA) at 48° C. overnight. Isolation of genomic DNA from cell lines was performed with the phenol-chloroform extraction protocol followed by ethanol precipitation. Bisulfite treatment was conducted using an EpiTect Bisulfite Kit (QIAGEN, Valencia, USA), and was subsequently amplified via PCR using primers as shown in the following table. PCR products were purified using the QIAquick Gel Extraction kit (Qiagen), and sequenced by Genewiz DNA sequencing service (Genewiz, South Plainfield, USA). The data were analyzed using the Sequence Scanner v1.0 software (Life technologies). A methylation frequency of ≥50% of total CpG sites within the amplified region was considered “methylation-positive”.
The mark [2] stands for this setting: agent alone, bladder cancer cells.

Take `Cc1ccc(-c2cc(C(F)(F)F)nn2-c2ccc(S(N)(=O)=O)cc2)cc1` [celecoxib, Celecoxib]: the YAP1 expression result in the test on YAP1 (COX2 inhibitor added to erlotinib, basal-type cells) is “no longer able to induce”; in the test on YAP1 (setting [2]) it was “induced”. In addition, in the test on urothelial CSCs (COX2 inhibitor added to erlotinib, basal-type cells, 72 hours), the sphere formation result was “impaired”. Further, in the test on urothelial CSCs (setting [2]), the “sphere formation / sphere-forming ability” value is on record as “repressed”. Also, the let-7 expression entry in the test with let-7 is “restoration”. Moreover, the “expression of several miRNAs” value in the test on panel of miRNAs is listed as “induced”. In test [1], the “promoter methylation of miRNAs (miR-126, miR-296, miR-200c)” value was “demethylated”.
